Experimental data published in patent US20050272605A1, “Method to treat seeds” (priority 2002, published 2005).

What was measured:
[1] = test system: Brachiaria brizantha seeds; assay: Germination test of acid-scarified Brachiaria brizantha seeds on soil or paper substrate (Example 3); assay type: in vivo
Protocol: Effect of nitrate on a lot of acid-scarified Brachiaria brizantha imported from Brazil in July 2001, shortly after harvesting from the soil surface, using different substrates for the germination test.
The seeds were treated on Aug. 15, 2001 and after drying, samples were taken and tested for germination on Aug. 24, 2001. The soil substrate was maintained at the same moisture level throughout the test by weight. The paper substrate was maintained moist by irrigation from below, using a piece of plastic foam to separate the paper from the water in the base of the tray.

[2] = test system: Brachiaria dictyoneura seeds; assay: Germination test of Brachiaria dictyoneura seeds after scarification, nitrate soaking and GA (Example 2); assay type: in vivo
Description: The seeds (two replicates of 100 seeds) were sown on a soil substrate with the same growth conditions described above.

Panicum maximum seeds = assay: Germination of Panicum maximum seeds (Example 6); assay type: in vivo, Panicum maximum cv. Tanzania; conditions: scarified seeds
Paspalum notatum seeds [3] = assay: Germination of Paspalum notatum seeds, lot of 1997 (Example 4); assay type: in vivo, Paspalum notatum (cv. Pensacola)
[4] = test system: Brachiaria dictyoneura seeds; assay: Germination test of Brachiaria dictyoneura seeds after scarification and aerated nitrate treatment (Example 1); assay type: in vivo; conditions: for % Germination 7 days (paper + water): paper substrate irrigated with water, after 7 months storage
Protocol: The tank is filled with an approximately 0.2% solution of potassium nitrate 16 in water, to level which will ensure that the seed-containing bags are just immersed. The seeds 15 are immersed at ambient temperature for about 10 to about 36 hours, during which time the tank is constantly aerated by a flow of air form the compressed air source through the perforated pipe 12. The bags are then removed form the tank 10 and allowed to drain for about 12 hours. If the seed being treated requires addition of further agents such as gibberellic acid or smoke extract, then suitable quantities of these ingredients in solution are poured over the draining seed, and mixed by hand. The seeds are then dried to between 8% and 14% moisture content, preferably 12% moisture content, and stored as required.
A lot of Brachiaria dictyoneura seeds were harvested manually (by cutting the panicle and sweating for six days in heaps, and then threshing) in Zapote, Pérez Zeledón, Costa Rica, in July 2000. The seeds were dried in the shade, classified to remove waste and stored at 15° C. and 60% relative humidity for six months. A 30 kg sample of this seed lot was then scarified for 30 minutes with concentrated sulphuric acid on Jan. 4, 2001. The seeds were dried to 12% moisture and then re-scarified for a further 15 minutes on Feb. 26, 2001. After the second scarification the seeds were soaked in potassium nitrate for 24 hours and drained for 12 hours by the process described above.
Small 50 g sub-samples of the same seed lot were also taken, some of which were scarified once or twice but not treated, and some of which only received the first 30-minute scarification, but were treated. The seeds were then dried carefully in the sun until they reached the 12% moisture content. A sample of the nitrate treated, double scarified seed was tested for germination on Mar. 8, 2001, using 3 replicates of […] pure seeds on a soil-based substrate, at approximately 35° C. during the day, and 15° C. during the night, with florescent and incandescent lighting during the day (12 hours), in closed plastic germination trays. The result was 79% germination after 26 days. The four samples were then stored for a further 7 months when the following germination test was carried out on Nov. 17, 2001, using 4 replicates of 100 seeds on a paper substrate irrigated with water, and the same growth conditions described above.

Paspalum notatum seeds [5] = assay: Germination of Paspalum notatum seeds, lot of 2001 (Example 5); assay type: in vivo, Paspalum notatum cv Pensacola; conditions: one scarification and aerated nitrate treatment

## O=[N+]([O-])[O-].[K+] [Nitrate, potassium nitrate]
[1]; Paper substrate
  % Germination 7 days: 77cd %
  % Germination 25 days: 82cde %
[1]; Soil substrate
  % Germination 7 days: 88de %
  % Germination 25 days: 90e %
[2]; Scarification once (20 minutes)
  % Germination 15 days (soil substrate): 42.5b %
[2]; Scarification twice (20 + 10 minutes)
  % Germination 15 days (soil substrate): 65.0c %
Panicum maximum seeds
  % Germination: 50.0%
Paspalum notatum seeds [3]; Scarification 10 minutes
  % Germination: 64.8%
Paspalum notatum seeds [3]; Scarification 20 minutes
  % Germination: 63.5%
[4]; Scarified once, listed as Aerated nitrate treatment
  % Germination 7 days (paper + water): 87.25c %
[4]; Scarified once, listed as aerated nitrate treatment
  % Germination 7 days (paper + water): 87%
[4]; Scarified twice, listed as Aerated nitrate treatment
  % Germination 7 days (paper + water): 93.00c %
[4]; Scarified twice, listed as aerated nitrate treatment
  % Germination 7 days (paper + water): 93%
[4]; double scarified seed, soil-based substrate, tested Mar. 8, 2001
  germination after 26 days: 79%
[4]; seedlings from treated seeds versus untreated
  seedling vigor: greater vigor
[4]; seeds scarified once
  increase in germination due to nitrate treatment: 30%
[4]; seeds scarified twice
  increase in germination due to nitrate treatment: 20%
Paspalum notatum seeds [5]
  % Germination: 79.0%
